Experimental data as given in article PMC12566971, “Polyprenylated Acylphloroglucinols from Hypericum rochelii and Hypericum olympicum—Cytotoxic Effects on Non-Tumorigenic Cell Lines and Antibacterial Potential” (Pharmaceuticals, 2025).
pIC50: −log10 of the molar value. In brackets after ≈: the same amount, converted by molar mass. Several values for one entry are separate records, joined by “and”; a condition that tells them apart may be missing. Equal values may be shown once.

Key:
Enterococcus faecalis = conditions: ref [4],[29]; cited from earlier work
human CYP450 3A4 isoform = assay: ELISA for cytochrome P450 3A4 in HEPG2 cells; format: in vitro ADME
Procedure: The effect on CYP450 was tested using the ELISA method on the HEPG2 liver cell line. As mentioned, it has weak or absent expression of the CYP450 superfamily, e.g., CYP3A4, CYP1A2, etc., and that low basal activity makes it a good model for studies of CYP inducers. In addition, these cells have the advantage of immortalization due to their cancerous nature. The standard curves after the two ELISA tests (Figure S7) were prepared as a standard dose–response curve, also called a four-parameter logistic (4-PL) curve.
The effect on human cytochrome P450 3A4, the major member of the CYP450 superfamily of enzymes, which is predominantly found in the liver and metabolizes approximately half of the drugs metabolized by CYP450 enzymes, was assayed using the CYP3A4 ELISA Kit (DL-CYP3A4-Hu, DLdevelop, Kelowna, BC, Canada). Sample selection and initial preparation were as for the total cytochrome ELISA. The experiment was performed according to the manufacturer’s instructions. This assay is a sandwich enzyme immunoassay based on the binding of CYP3A4 in standards and samples to a biotin-conjugated antibody specific for CYP3A4. […] The reaction was stopped by adding sulfuric acid solution, and the plate was read at 450 nm on a microplate reader ELx800 (BioTek Instruments, Inc.). The CYP3A4 concentration was determined by comparing the O.D. of the samples with the standard curve.

[1] = test system: Methicillin-Resistant S. aureus (MRSA); assay: MIC and MBC evaluation (broth microdilution, agar plate assay); format: cell-based, Staphylococcus aureus
Procedure: The MIC and MBC assessment on the pathogenic bacteria and the candidate probiotic lactic acid bacteria was carried out by the broth microdilution assay (BMD) and the agar plate assay, respectively, as described in [4]. The metabolic (dehydrogenase) activity of the lactic acid bacteria was assessed as described in [4].
P. aeruginosa PAO1 ATCC 15692 was purchased from the American Type Cell Culture Collection (ATCC, Manassas, VA, USA). S. mutans DSM 20523 was bought from the German Collection of Microorganisms and Cell Cultures (DSMZ GmbH, Braunschweig, Germany). All other bacteria and strains were purchased as described in [4].

[2] = test system: Human gingival fibroblasts (HGF); assay: MTT assay for cytotoxicity; format: cell-based; conditions: for IC50: Homo sapiens, Fibroblast
Procedure: (§1) The MTT assay was performed according to Annex C, ISO 10993-5 [56] as in [116]. The panel of non-tumorigenic cell lines consisted of one murine (CCL-1 fibroblasts, which are recommended as a standard for cytotoxicity evaluation in Annex C of ISO 10993-5 [56]) and four human cell lines—HaCaT (immortalized epidermal keratinocytes), HGF (gingival fibroblasts), HEK-293 (embryonic cells from kidney epithelium), and HEPG2 (hepatoblastoma). Although technically a cancer cell line, HEPG2 is non-tumorigenic and retains many hepatocyte-related features in its proteome and a high degree of morphological and functional differentiation, also being a stage one hepatoblastoma.
(§2) CCL-1 was purchased from ATCC and HaCaT and HGF were bought from CLS Cell Lines Service (GmbH, Eppelheim, Germany). HEK-293 and HEPG2 were obtained from DSMZ. The cell culture medium for HaCaT and HEPG2 was Dulbecco’s Modified Eagle Medium (DMEM) with 4.5 g/L glucose (DMEM-HA). For HGF it was DMEM/F-12 (DMEM-12-A, a 1:1 mixture of DMEM and Ham’s F-12 medium). The cell medium for CCL-1 and HEK-293 was Eagle’s Minimum Essential Medium (MEM) (MEM-A). Ten percent heat-inactivated fetal bovine serum (FBS) was added to all media but to the one for the CCL-1 cells, to which 10% heat-inactivated horse serum was added. All media were supplemented with 2 mM L-glutamine and Penicillin/Streptomycin (Pen/Strep, 100×). The cell culture media, sera, and additives were from Capricorn Scientific (Düsseldorf, Germany).
(§3) GraphPad Prism software version 9 (GraphPad Software Inc., San Diego, CA, USA) was used to calculate the IC50 values from the MTT assays as in [116], as well as the MTC values, and the ELISA standard curves. The MTC values are, according to ISO 10993-5, the maximum concentration at which at least 70% of the cells are viable (nonlin fit, range).

[3] = test system: Human embryonic kidney-293 (HEK-293); assay: MTT assay for cytotoxicity; format: cell-based; conditions: for IC50: Homo sapiens, HEK293
Procedure: as §1, §2, §3

HEK-293 cells = assay: Colony-forming unit assay; format: cell-based, human; conditions: for Percentage of colonies, HEK-293: untreated control = 100%
Procedure: The CFU was also performed according to ISO 10993-5 [56]. Briefly, the cell lines were seeded at a concentration like for the MTT assay in 6-well plates, treated with the chosen agents and left for a 48 h exposure. Then, the cells were trypsinized, and pre-calculated 20 to 100 µL from the cell suspension was added to a sterile Roswell Park Memorial Institute (RPMI) medium (RPMI-A, Capricorn Scientific), containing 20% of the respective cell culture medium for each cell line but with a final concentration of FBS and L-glutamine of 40–42% and 0.8–1.2 mM, respectively, 0.2% NaHCO3 (S6297, Merck Sigma-Aldrich, Saint Louis, MI, USA), and 0.8% methylcellulose (M0512, Merck Sigma-Aldrich) for viscosity. The viscous cell solution was vortexed for 10 s and dispensed in an equal number of cells per well in 6-well plates (1.2 mL per well) in triplicate for each concentration of treatment. HaCaT and HEK-293 were seeded at a concentration of 2500 cells per mL, CCL-1 and HEPG2—2000 cells per mL, and HGF—1000 cells per mL. The plates were incubated for 6 to 10 days, and when the colonies reached 20 to 50 cells per colony, 100 µL MTT salt solution was added to each well. After half an hour, the stained colonies were counted manually using a microscope.

[4] = test system: Methicillin-Resistant S. aureus (MRSA); conditions: ref [4],[29]; cited from earlier work
tumor cell lines = conditions: ref [29]; cited from earlier work
[5] = at least 70% of cells viable, ISO 10993-5

For CC(C)=CCCC1(C)C(CC=C(C)C)CC2C(=O)C1(C(=O)C(C)C)C(=O)C(CC=C(C)C)=C2O (stereo not shown) [Olympiforin B], the “MIC on bacteria, E. faecalis” value (Enterococcus faecalis) is given as 4 µg/mL (≈ 8.53 µM), the “CYP450 3A4, Mean Diff. Co vs. agent (Tukey)” value (human CYP450 3A4 isoform; 2×MIC, control minus treated) is given as 0.000325 and the “Induction of CYP450 3A4” value (human CYP450 3A4 isoform; HEPG2, 24 h, concentrations inhibiting S. aureus) is given as “hardly induce”. For the same molecule, the MBC ([1]; Staphylococcus aureus, MRSA) was 68 µg/mL and 121 µM, the “MBC/MIC ratio, MRSA” value ([1]; bactericidal if ≤ 4, bacteriostatic if > 4) was 68 and the IC50 ([2]; MTT assay) was 18 µg/mL. The IC50 ([2]; converted to µM) was 38.4 µM, the “Maximum tolerated concentration (MTC), HGF” value [2, 5] was 16.06 µg/mL and the IC50 ([3]; MTT assay) was 0.67 µg/mL. For the same molecule, the IC50 ([3]; converted to µM) was 1.43 µM, the “Maximum tolerated concentration (MTC), HEK-293” value [3, 5] was 0.46 µg/mL and the “Colonies per well for HEK-293 cells” value (HEK-293 cells; 1/2 × IC50, 48 h exposure) was 102. The “Percentage of colonies, HEK-293” value (HEK-293 cells; 1/2 × IC50) was 97%, the “Colonies per well for HEK-293 cells” value (HEK-293 cells; 2 × IC50, 48 h exposure) was 80 and the “Percentage of colonies, HEK-293” value (HEK-293 cells; 2 × IC50) was 77%. The “Colonies per well for HEK-293 cells” value (HEK-293 cells; IC50, 48 h exposure) was 99, the “Percentage of colonies, HEK-293” value (HEK-293 cells; IC50) was 95% and the “MIC on bacteria, MRSA” value [4] was 1 µg/mL (≈ 2.13 µM). For the same molecule, the pIC50 (tumor cell lines) was 5.89.
